Data as given in ChEMBL document CHEMBL5233288, “Ginkgo Biflavones Cause p53 Wild-Type Dependent Cell Death in a Transcription-Independent Manner of p53” (J Nat Prod, 2023).
Activity calls are given as the source filed them. The calls are words filed in the database; no cut-off is given here.

Experiments:
[1] = tested on: HCT-116; assay: Cytotoxicity against human HCT-116 cells assessed as reduction in cell viability at 10 uM incubated for 72 hrs in presence of autophagy inhibitor, 3-methyladenine by resazurin-based analysis; format: functional
[2] = tested on: HCT-116; assay: Downregulation of MDM2 protein expression in human HCT-116 cells at 10 uM incubated for 24 hrs in presence of 10 uM 5-FU by western blot analysis; format: functional, cell-based
[3] = tested on: HCT-116; assay: Induction of cell cycle arrest in human HCT-116 cells expressing wild type p53 assessed as accumulation of cells at S phase at 5 uM incubated for 24 hrs by PI staining based flow cytometry (reference value: 0.52 to 3.83%); format: functional
[4] = tested on: HCT-116; assay: Induction of cell cycle arrest in human HCT-116 cells expressing wild type p53 assessed as accumulation of cells at S phase at 10 uM incubated for 24 hrs by PI staining based flow cytometry (reference value: 0.52 to 3.83%); format: functional
[5] = tested on: RKO; assay: Cytotoxicity against human RKO cells expressing wild type p53 assessed as induction of cell death at 20 uM incubated for 72 hrs by resazurin based analysis; format: functional
[6] = tested on: HCT-116; assay: Induction of mitochondrial membrane potential depolarization in human HCT-116 cells assessed as reduction in mitochondrial membrane potential at 20 uM incubated for 24 hrs by JC-1 staining based fluorescence analysis; format: functional, cell-based
[7] = tested on: HCT-116; assay: Induction of cell cycle arrest in human HCT-116 cells expressing wild type p53 assessed as accumulation of cells at S phase at 20 uM incubated for 24 hrs by PI staining based flow cytometry (reference value: 0.52 to 3.83%); format: functional
[8] = tested on: HCT-116; assay: Upregulation of p53 protein expression in human HCT-116 cells at 10 uM incubated for 24 hrs by western blot analysis; format: functional, cell-based
[9] = tested on: HCT-116; assay: Induction of cell cycle arrest in human HCT-116 cells expressing wild type p53 assessed as accumulation of cells at G1 phase at 10 uM incubated for 24 hrs by PI staining based flow cytometry (reference value: 62.5 to 66.7%); format: functional
[10] = tested on: HCT-116; assay: Induction of cell cycle arrest in human HCT-116 cells expressing wild type p53 assessed as accumulation of cells at G2 phase at 20 uM incubated for 24 hrs by PI staining based flow cytometry (reference value: 30.7 to 31.5%); format: functional
[11] = tested on: HCT-116; assay: Cytotoxicity against human HCT-116 cells assessed as reduction in cell viability at 10 uM incubated for 72 hrs in presence of ferroptosis inhibitor, ferrostatin-1 by resazurin-based analysis; format: functional
[12] = tested on: HCT-116; assay: Cytotoxicity against human HCT-116 cells expressing wild type p53 assessed as induction of cell death at 20 uM incubated for 72 hrs by resazurin based analysis; format: functional
[13] = tested on: HCT-116; assay: Induction of intracellular ROS generation in human HCT-116 cells at 20 uM incubated for 24 hrs by DCFH-DA staining based fluorescence analysis; format: functional, cell-based
[14] = tested on: HT-29; assay: Cytotoxicity against human HT-29 cells expressing p53 mutant assessed as induction of cell death at 20 uM incubated for 72 hrs by resazurin based analysis; format: functional
[15] = tested on: HCT-116; assay: Induction of apoptosis in human HCT-116 cells expressing wild type p53 assessed as viable cells at 10 uM incubated for 48 hrs by Annexin V-FITC/PI staining based flow cytometry (reference value: 82%); format: functional; conditions: read-out: Activity
[16] = tested on: SW-620; assay: Cytotoxicity against human SW620 cells expressing p53 mutant assessed as induction of cell death at 20 uM incubated for 72 hrs by resazurin based analysis; format: functional
[17] = tested on: HCT-116; assay: Upregulation of p53 protein expression in human HCT-116 cells at 10 uM incubated for 24 hrs in presence of 10 uM 5-FU by western blot analysis; format: functional, cell-based
[18] = tested on: HCT-116; assay: Increase in mitochondrial complex I activity in human HCT-116 cells at 20 uM incubated for 24 hrs; format: functional, cell-based
[19] = tested on: HCT-116; assay: Induction of apoptosis in human HCT-116 cells expressing wild type p53 assessed as necrotic cells at 10 uM incubated for 48 hrs by Annexin V-FITC/PI staining based flow cytometry (reference value: 0.44%); format: functional
[20] = tested on: HCT-116; assay: Induction of cell cycle arrest in human HCT-116 cells expressing wild type p53 assessed as accumulation of cells at G1 phase at 20 uM incubated for 24 hrs by PI staining based flow cytometry (reference value: 62.5 to 66.7%); format: functional
[21] = tested on: HCT-116; assay: Induction of cell cycle arrest in human HCT-116 cells expressing wild type p53 assessed as accumulation of cells at G2 phase at 10 uM incubated for 24 hrs by PI staining based flow cytometry (reference value: 30.7 to 31.5%); format: functional
[22] = tested on: HCT-116; assay: Induction of cell cycle arrest in human HCT-116 cells expressing wild type p53 assessed as accumulation of cells at G2 phase at 5 uM incubated for 24 hrs by PI staining based flow cytometry (reference value: 30.7 to 31.5%); format: functional
[23] = tested on: HCT-116; assay: Induction of apoptosis in human HCT-116 cells expressing wild type p53 assessed as early apoptotic cells at 20 uM incubated for 48 hrs by Annexin V-FITC/PI staining based flow cytometry (reference value: 12%); format: functional
[24] = tested on: HCT-116; assay: Induction of ferroptosis in human HCT-116 cells assessed as reduction in GSH content at 20 uM incubated for 24 hrs; format: functional, cell-based
[25] = tested on: HCT-116; assay: Increase in mitochondrial complex III activity in human HCT-116 cells at 20 uM incubated for 24 hrs; format: functional, cell-based
[26] = tested on: HCT-116; assay: Induction of cell cycle arrest in human HCT-116 cells expressing wild type p53 assessed as accumulation of cells at G1 phase at 5 uM incubated for 24 hrs by PI staining based flow cytometry (reference value: 62.5 to 66.7%); format: functional
[27] = tested on: HCT-116; assay: Potentiation of 5-FU-induced cytotoxicity in human HCT-116 cells assessed as reduction in cell viability at 10 uM incubated for 24 hrs in presence of 10 uM 5-FU by resazurin based analysis; format: functional
[28] = tested on: HCT-116; assay: Induction of apoptosis in human HCT-116 cells expressing wild type p53 assessed as necrotic cells at 20 uM incubated for 48 hrs by Annexin V-FITC/PI staining based flow cytometry (reference value: 0.44%); format: functional
[29] = tested on: HCT-116; assay: Upregulation of p53 protein expression in human HCT-116 cells expressing wild type p53 at 20 uM by western blot analysis; format: functional, cell-based; conditions: time 0.5-16 hrs, TDE = time-dependent effect
[30] = tested on: HCT-116; assay: Upregulation of p53 protein expression in human HCT-116 cells expressing wild type p53 incubated for 24 hrs by western blot analysis; format: functional, cell-based; conditions: dose 2.5-20 µM
[31] = tested on: HCT-116; assay: Induction of apoptosis in human HCT-116 cells expressing wild type p53 assessed as early apoptotic cells at 10 uM incubated for 48 hrs by Annexin V-FITC/PI staining based flow cytometry (reference value: 12.5%); format: functional
[32] = tested on: HCT-116; assay: Downregulation of MDM2 protein expression in human HCT-116 cells at 10 uM incubated for 24 hrs by western blot analysis; format: functional, cell-based
[33] = tested on: HCT-116; assay: Cytotoxicity against human HCT-116 cells deficit of p53 expression assessed as induction of cell death at 20 uM incubated for 72 hrs by resazurin based analysis; format: functional
[34] = tested on: HCT-116; assay: Upregulation of phosphorylated p53 expression in human HCT-116 cells expressing wild type p53 at 20 uM incubated for 24 hrs by western blot analysis; format: functional, cell-based

Structure (SMILES)	Activity [1]	inhibition [2]	Activity [3] [%]	Activity [4] [%]	Activity [5]	Activity [6]	Activity [7] [%]	Activity [8]	Activity [9] [%]	Activity [10] [%]	Activity [11]	Activity [12]	Activity [13]	Activity [14]	viability at 10 µM [15] [%]	Activity [16]	Activity [17]	Activity [18]	Activity [19] [%]	Activity [20] [%]	further results
COc1ccc(-c2cc(=O)c3c(O)cc(O)cc3o2)cc1-c1c(O)cc(O)c2c(=O)cc(-c3ccc(O)cc3)oc12 [BILOBETIN]	inactive	Active	1.81	4.88	Active	Active	7.24	Active	59.9	41	inactive	Active	Active	inactive	67.9	inactive	Active	Active	0.46	51.2	Activity [21]: 33.4%; Activity [22]: 32.7%; Activity [23]: 39.9%; Activity [24]: Active; Activity [25]: Active; Activity [26]: 64.4%; Activity [27]: Active; Activity [28]: 0.49%; Activity [29]: Tde; Activity [30]: Dose-Dependent Effect; Activity [31]: 28%; inhibition [32]: Active; Activity [33]: inactive; Activity [34]: Active
COc1cc(O)c2c(=O)cc(-c3ccc(OC)c(-c4c(O)cc(O)c5c(=O)cc(-c6ccc(O)cc6)oc45)c3)oc2c1 [GINKGETIN]	inactive	Active	1.2	3.37	Active	Active	1.47	Active	51.2	52.1	inactive	Active	Active	inactive	67.6	inactive	Active	Active	0.99	45.3	Activity [21]: 43.1%; Activity [22]: 39.2%; Activity [23]: 33.6%; Activity [24]: Active; Activity [25]: Active; Activity [26]: 58.1%; Activity [27]: Active; Activity [28]: 0.54%; Activity [29]: Tde; Activity [30]: Dose-Dependent Effect; Activity [31]: 25.8%; inhibition [32]: Active; Activity [33]: inactive; Activity [34]: Active
COc1ccc(-c2cc(=O)c3c(O)cc(O)c(-c4cc(-c5cc(=O)c6c(O)cc(O)cc6o5)ccc4OC)c3o2)cc1 [ISOGINKGETIN]	inactive	Active	3.37	1.38	Active	Active	3.82	Active	52.6	46.6	inactive	Active	Active	inactive	70	inactive	Active	Active	0.92	47.3	Activity [21]: 44.5%; Activity [22]: 36.7%; Activity [23]: 40.6%; Activity [24]: Active; Activity [25]: Active; Activity [26]: 58.4%; Activity [27]: Active; Activity [28]: 0.79%; Activity [29]: Tde; Activity [30]: Dose-Dependent Effect; Activity [31]: 26.5%; inhibition [32]: Active; Activity [33]: inactive; Activity [34]: Active
